PMC8229862, “Elaiophylin Is a Potent Hsp90/ Cdc37 Protein Interface Inhibitor with K-Ras Nanocluster Selectivity” (Biomolecules, 2021)

Key:
Hsp90α = target: T1, Hsp90α (Homo sapiens, UniProt P07900); assay: co-immunoprecipitation of Cdc37 with Hsp90α from cells treated with […] for […] h; format: cell-based
T1 construct: gene HSP90AA1; endogenous Hsp90 in MDA-MB-231 or MIA PaCa-2 cells; with Cdc37

[1] = target: T2, Hsp90 (N-terminal domain) (Homo sapiens, UniProt P07900); assay: lysate-based split Renilla luciferase Hsp90/Cdc37 interaction assay; supported by co-immunoprecipitation; format: biochemical
T2 construct: gene HSP90AA1; N-terminal fragment of Hsp90 (NRL-N-Hsp90); with Cdc37

## C/C1=C\[C@H](C)C[C@H](C)[C@H](Cc2cnco2)OC(=O)/C(C)=C/[C@H](C)C[C@H](C)[C@H](Cc2cnco2)OC1=O [conglobatin A]
Hsp90α
  co-immunoprecipitation of Cdc37 with Hsp90α from cells treated with 10 μM for 24: Both elaiophylin and conglobatin A treatment reduced the amount of co-precipitated Cdc37

## CC[C@@H]1[C@@H](C)O[C@@](O)([C@@H](C)[C@H](O)[C@H](C)[C@H]2OC(=O)/C=C/C=C/[C@H](C)[C@@H]([C@@H](C)[C@@H](O)[C@H](C)[C@@]3(O)C[C@@H](O[C@H]4C[C@H](O)[C@H](O)[C@H](C)O4)[C@H](CC)[C@@H](C)O3)OC(=O)/C=C/C=C/[C@@H]2C)C[C@H]1O[C@H]1C[C@H](O)[C@H](O)[C@H](C)O1 [elaiophylin]
[1]
  IC50: 11 ± 4 µM
